Structures can show the parent of a compound that is named as a salt. Where two headings read alike, the source gives them in different places.
Tests used:
[1] = cited from earlier work
KAT8 [2] = biological target: T1, KAT8 (Homo sapiens, UniProt Q9H7Z6); assay: FDA library screening (analysis service PLEXERA) and binding strength, KAT8
T1 sequence (Q9H7Z6 1-458): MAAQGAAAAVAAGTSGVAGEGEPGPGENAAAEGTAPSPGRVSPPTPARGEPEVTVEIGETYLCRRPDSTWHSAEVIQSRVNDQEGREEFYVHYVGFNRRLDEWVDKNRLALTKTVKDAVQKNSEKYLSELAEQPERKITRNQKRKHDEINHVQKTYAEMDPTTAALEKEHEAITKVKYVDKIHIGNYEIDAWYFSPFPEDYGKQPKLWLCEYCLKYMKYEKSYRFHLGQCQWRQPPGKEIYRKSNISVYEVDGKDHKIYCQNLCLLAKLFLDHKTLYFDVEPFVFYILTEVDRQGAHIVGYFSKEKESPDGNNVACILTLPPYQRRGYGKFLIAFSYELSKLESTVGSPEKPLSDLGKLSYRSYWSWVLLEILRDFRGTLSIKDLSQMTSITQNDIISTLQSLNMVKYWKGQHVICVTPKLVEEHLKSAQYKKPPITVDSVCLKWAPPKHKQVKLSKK
Source text: (§1) Medicines containing each as an active ingredient (provided that each medicine has an indication other than that for malignant tumors) have already been commercially available.
(§2) Meanwhile, medicines containing each as an active ingredient (provided that each medicine has an indication other than that for malignant tumors) have already been commercially available.

HAT1 [3] = biological target: T2, HAT1 (Homo sapiens, UniProt O14929); assay: FDA library screening (analysis service PLEXERA) and binding strength, HAT1
T2 sequence (O14929 1-419): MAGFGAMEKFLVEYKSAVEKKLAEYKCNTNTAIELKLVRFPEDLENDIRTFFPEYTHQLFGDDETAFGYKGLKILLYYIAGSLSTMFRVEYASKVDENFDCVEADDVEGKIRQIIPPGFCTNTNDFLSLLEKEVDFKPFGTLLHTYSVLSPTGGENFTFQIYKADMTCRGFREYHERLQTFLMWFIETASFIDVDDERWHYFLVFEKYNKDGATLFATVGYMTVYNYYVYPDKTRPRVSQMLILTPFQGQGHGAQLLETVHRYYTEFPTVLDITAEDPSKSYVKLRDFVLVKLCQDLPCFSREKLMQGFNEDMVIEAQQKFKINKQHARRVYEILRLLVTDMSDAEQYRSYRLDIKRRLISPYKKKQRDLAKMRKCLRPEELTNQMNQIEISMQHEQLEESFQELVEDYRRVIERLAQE
Source text: as §1, §2

HAT1 [4] = assay: Inhibitory effect of low-molecular-weight compounds on expression of HAT1 by RT-PCR; format: cell-based; conditions: FIG. 6
KAT8 [5] = assay: Inhibitory effect of low-molecular-weight compounds on expression of KAT8 by RT-PCR; format: cell-based; conditions: FIG. 6
[6] = interview form of commercially available medicine
[7] = interview form, given as percent (external preparation / solution concentration)

| Compound | maximum effective blood concentration (Cmax) [1, 6] | inhibition of function of KAT8 (KAT8 [2]) | inhibition of function of HAT1 (HAT1 [3]) | also measured |
| --- | --- | --- | --- | --- |
| CCN(CC)C(=O)Nc1ccc(OCC(O)CNC(C)(C)C)c(C(C)=O)c1 (centres unmarked) [celiprolol hydrochloride] | 0.3 µg/mL | inhibited function of both HAT1 and KAT8 | inhibited function of both HAT1 and KAT8 |  |
| CN(C(=O)CN(CCO)CC(=O)N(C)C(C)(C)Cc1ccccc1)C(C)(C)Cc1ccccc1 [oxethazaine] | 1 µg/mL |  | inhibited only HAT1 |  |
| COC(=O)CCc1ccc(OCC(O)CNC(C)C)cc1 (centres unmarked) [esmolol hydrochloride] | 2.7 µg/mL |  | inhibited only HAT1 |  |
| CO[C@]12C[C@@H](COC(=O)c3cncc(Br)c3)CN(C)[C@@H]1Cc1cn(C)c3cccc2c13 [nicergoline] | 96 ng eq./mL |  | inhibited only HAT1 |  |
| C[N+]1(C)CCC(OC(=O)C(O)(c2ccccc2)C2CCCC2)C1 (centres unmarked) [glycopyrrolate] |  | inhibited only KAT8 |  |  |
| CCN1CCN(C(=O)N[C@@H](C(=O)N[C@@H]2C(=O)N3C(C(=O)O)=C(CSc4nnnn4C)CS[C@H]23)c2ccc(O)cc2)C(=O)C1=O [cefoperazone dihydrate] | 1,000 ng/ml |  |  |  |
| C=CCc1ccccc1OCC(O)CNC(C)C (centres unmarked) [alprenolol hydrochloride] | 0.12 µg/mL | inhibited function of both HAT1 and KAT8 | inhibited function of both HAT1 and KAT8 |  |
| clofilium tosylate | 0.11 µg/mL |  | inhibited only HAT1 |  |
| CC(C)NCC(O)COc1ccc(CCOCC2CC2)cc1 (centres unmarked) [betaxolol hydrochloride] | 0.0418 µg/mL | inhibited function of both HAT1 and KAT8 | inhibited function of both HAT1 and KAT8 |  |
| CCCN1C[C@H](CSC)C[C@@H]2c3cccc4[nH]cc(c34)C[C@H]21 [pergolide mesylate] | 0.026 µg/mL | inhibited only KAT8 |  |  |
| C=CC1=C(C(=O)O)N2C(=O)[C@@H](NC(=O)/C(=N\OCC(=O)O)c3csc(N)n3)[C@H]2SC1 [cefixime] | 3.97 µg/mL |  |  |  |
| CCCCNc1cc(C(=O)O)cc(S(N)(=O)=O)c1Oc1ccccc1 [bumetanide] | 0.882 µg/mL | inhibited only KAT8 |  |  |
| CN[C@H](CC(C)C)C(=O)N[C@H]1C(=O)N[C@@H](CC(N)=O)C(=O)N[C@H]2C(=O)N[C@H]3C(=O)N[C@H](C(=O)N[C@H](C(=O)O)c4cc(O)cc(O)c4-c4cc3ccc4O)[C@H](O)c3ccc(c(Cl)c3)Oc3cc2cc(c3O[C@@H]2O[C@H](CO)[C@@H](O)[C@H](O)[C@H]2O[C@H]2C[C@](C)(N)[C@H](O)[C@H](C)O2)Oc2ccc(cc2Cl)[C@H]1O [vancomycin hydrochloride] | 30 µg/mL | inhibited function of both HAT1 and KAT8 | inhibited function of both HAT1 and KAT8 |  |
| C[C@@H](O)[C@H]1C(=O)N2C(C(=O)O)=C(SCCN=CN)C[C@H]12 [imipenem] | 82.8 µg/mL |  |  |  |
| CCc1cccc(CC)c1NC(=O)CN(CC(=O)O)CC(=O)O [etifenin] | 5.0 µg/mL |  | inhibited only HAT1 |  |
| NCC[C@H](O)C(=O)N[C@@H]1C[C@H](N)[C@@H](O[C@H]2O[C@H](CN)[C@@H](O)[C@H](O)[C@H]2O)[C@H](O)[C@H]1O[C@H]1O[C@H](CO)[C@@H](O)[C@H](N)[C@H]1O [amikacin hydrate] | 25 µg/mL | inhibited function of both HAT1 and KAT8 | inhibited function of both HAT1 and KAT8 |  |
| COCCc1ccc(OCC(O)CNC(C)C)cc1.COCCc1ccc(OCC(O)CNC(C)C)cc1.O=C(O)C(O)C(O)C(=O)O (racemic) [metoprolol-(+,−)(+)-tartrate salt] | 0.077 µg/mL | inhibited only KAT8 |  |  |
| CCc1oc2ccccc2c1C(=O)c1cc(Br)c(O)c(Br)c1 [benzbromarone] | 3.1 µg/mL |  | inhibited only HAT1 |  |
| CN(CCCCCCCCCCN(C)C(=O)Oc1cccc([N+](C)(C)C)c1)C(=O)Oc1cccc([N+](C)(C)C)c1 [demecarium bromide] |  | inhibited function of both HAT1 and KAT8 | inhibited function of both HAT1 and KAT8 |  |
| CC(C(=O)O)c1ccc(C(=O)c2cccs2)cc1 (centres unmarked) [suprofen] |  |  | inhibited only HAT1 | maximum effective blood concentration (Cmax) [1, 7]: 1% |
| CCC(=O)O[C@@H](O[P@](=O)(CCCCc1ccccc1)CC(=O)N1C[C@H](C2CCCCC2)C[C@H]1C(=O)O)C(C)C [fosinopril] | 4 µg/mL |  |  |  |
| CC(N/C(=N\C#N)Nc1ccncc1)C(C)(C)C (centres unmarked) [pinacidil] | 2.5 µg/mL |  | inhibited only HAT1 |  |
| C=C1[C@@H]2CC[C@H]3[C@]4(C)C[C@H](O[C@@H]5O[C@H](CO)[C@@H](OS(=O)(=O)O)[C@H](OS(=O)(=O)O)[C@H]5OC(=O)CC(C)C)C[C@@H](C(=O)O)[C@H]4CC[C@]3(C2)[C@@H]1O [atractyloside potassium salt] | 60 µg/mL |  | inhibited only HAT1 |  |
| colistin sulfate | 4.4 µg/mL | inhibited function of both HAT1 and KAT8 | inhibited function of both HAT1 and KAT8 | inhibitory effect on expression of HAT1 (HAT1 [4]): inhibitory effect; inhibitory effect on expression of KAT8 (KAT8 [5]): inhibitory effect |
| C=CCOc1ccccc1OCC(O)CNC(C)C (centres unmarked) [oxprenolol hydrochloride] | 0.3 µg/mL | inhibited function of both HAT1 and KAT8 | inhibited function of both HAT1 and KAT8 | maximum effective blood concentration ([1]; commercially available medicine): 30.18 µg/µL |
| CC(C)NCC(O)COc1ccc(COCCOC(C)C)cc1 (centres unmarked) [bisoprolol fumarate] | 0.1 µg/mL | inhibited function of both HAT1 and KAT8 | inhibited function of both HAT1 and KAT8 |  |
| O=C([O-])c1ccccc1-c1c2cc(Br)c(=O)cc-2oc2[c]([Hg+])c([O-])c(Br)cc12.[Na+].[Na+].[OH-] [merbromin] |  | inhibited only KAT8 |  | maximum effective blood concentration (Cmax) [1, 7]: 2% |
| Cc1cc(=O)n(-c2ccccc2)n1C [antipyrine] | 50 µg/mL |  | inhibited only HAT1 |  |
| Cc1cc(C(C)(C)CC(C)(C)C)ccc1OCCOCC[N+](C)(C)Cc1ccccc1.[Cl-] [methylbenzethonium chloride] | 1.93 µg/mL | inhibited function of both HAT1 and KAT8 | inhibited function of both HAT1 and KAT8 | maximum effective blood concentration (Cmax) [1, 7]: 0.3%; inhibitory effect on expression of HAT1 (HAT1 [4]): inhibitory effect; inhibitory effect on expression of KAT8 (KAT8 [5]): inhibitory effect |
